How the values were obtained:
Daphnia magna = conditions: chronic/long-term
Folsomia candida = conditions: chronic/long-term; reproduction
Hypoaspis aculeifer = conditions: chronic/long-term; reproduction
Mus musculus = conditions: chronic; histopathology: neoplastic
Oncorhynchus mykiss = conditions: for LC50: acute, mortality; for NOEC: chronic/long-term
Tagia sp. = conditions: chronic/long-term; reproduction
Rattus norvegicus = conditions: for LD50: acute, oral, mortality
Apis mellifera = conditions: acute, mortality
Typhlodromus pyri = experiment: LR50; higher = less toxic; conditions: not reported; mortality
[1] = duration: 21 days, reproduction

| Compound | NOEC (Daphnia magna; [1]) [mg/L] | NOEC (Folsomia candida) [mg/kg] | NOEC (Hypoaspis aculeifer) [mg/kg] | NOAEL (Mus musculus) [mg/kg-day] | LC50 (Oncorhynchus mykiss; duration: 96 hours) [µg/mL] | NOEC (Tagia sp.) [mg/kg] | LD50 (Rattus norvegicus) [mg/kg-day] | also measured |
| --- | --- | --- | --- | --- | --- | --- | --- | --- |
| CC1CNC(=O)N1 (centres undefined) [4-Methyl-2-imidazolidinone] | 100 | 90 | ≥ 100 | 8 | > 100 | ≥ 1000 |  | NOEC (Oncorhynchus mykiss; duration: 63 days, growth): 2 mg/L |
| CC1CNC(=S)N1 (centres undefined) [4-Methylimidazolidine-2-thione] | 3.2 | 9 | ≥ 100 | 0.16 |  | 178 | 795 | LC50 (Oncorhynchus mykiss): > 100 µg/mL; NOEC (Oncorhynchus mykiss; duration: 28 days, growth): 102 mg/L |
| CC1CN2C(=S)SSC2=N1 (centres undefined) [6-Methyl-5,6-dihydroimidazo[2,1-C][1,2,4]dithiazole-3-thione] |  |  |  |  |  |  |  | NOAEL (Rattus norvegicus; short-term, duration: 28 days, neurology): 0.466 mg/kg-day |
| CC(CNC(=S)[S-])NC(=S)[S-].[Zn+2] (centres undefined) [Propineb] | 0.015 | 39.1 | 39.1 |  | 0.329 | 38.7 | > 2000 | LD50 (Apis mellifera; dermal): > 100 µg/piece; LD50 (Apis mellifera; oral, unspecified): > 100 µg/piece; LD50 (Coturnix japonica; acute, oral, mortality): > 5000 mg/kg-day; NOAEL (Coturnix japonica; chronic): 64.7 mg/kg-day; NOEC (Daphnia magna; duration: 35 days, other): 0.48 mg/L; NOEC (Oncorhynchus mykiss; duration: 28 days, other): > 0.6 mg/L; NOEC (Oncorhynchus mykiss; growth): 0.0823 mg/L; NOAEL (Rattus norvegicus; chronic, M, organ weight): 2.5 mg/kg-day; NOAEL (Rattus norvegicus; developmental, development): 3 mg/kg-day; NOAEL (Rattus norvegicus; reproduction developmental, body weight): 3 mg/kg-day; NOAEL (Rattus norvegicus; subchronic, F, body weight): 9.36 mg/kg-day; LR50 (Typhlodromus pyri): 5.6 g/ha |
